For eight molecules, MIC and pKa results are on record in patent US4914187A, “Ester derivatives of antibiotic L 17046” (Gruppo Lepetit S.p.A, priority 1989, dated 1990).

≈ marks a conversion by molar mass, not a printed value.

One data set deals with S. pneumoniae UC 41. The experiment in a line: agar-dilution MIC test. The format is cell-based. The procedure: (§1) Isosensitest broth (Oxoid) and Todd-Hewitt broth (Difco) are used for growing staphylococci and streptococci, respectively. Broth cultures are diluted so that the final inoculum is about 10^4 colony forming units/ml (CFU/ml).
In data set [1] the test system is S. epidermidis ATCC 12228. The experiment in a line: agar-dilution MIC test. The data set is classed as cell-based. Here is the method:
as §1

In another data set the test system is S. faecalis ATCC 7080. The experiment in a line: agar-dilution MIC test. The data set is classed as cell-based. The procedure:
as §1

In the next data set the test system is S. aureus ATCC 6538. The experiment in a line: agar-dilution MIC test. Conditions: 18-24 h at 37° C. The data set is classed as cell-based. Here is the method: as §1
Data set [2] concerns S. pyogenes C 203 SKF 13400. The experiment in a line: agar-dilution MIC test. The format is cell-based. Here is the method:
as §1

The next data set has as its system E. coli SKF 12140. Put plainly: agar-dilution MIC test. The format is cell-based.
The next data set is described as follows: pKa by titration. The format is physicochemical. Conditions: methylcellulose ®/water 4:1 (v/v), excess 0.01 M hydrogen chloride, titrated with 0.01 M NaOH. Here is the method:
^(c) the samples are dissolved in methylcellulose ®/water 4:1
(v/v), an excess of 0.01 M hydrogen chloride in the same mixture is added
thereto and the resulting solution is titrated with 0.01 M NaOH in the […]

The subject of a further data set is S. aureus TOUR. The experiment in a line: agar-dilution MIC test. The format is cell-based. The source says:
Isosensitest broth (Oxoid) and Todd-Hewitt broth (Difco) are used for growing staphylococci and streptococci, respectively. […]

The mark [3] stands for this setting: S. aureus TOUR + 30% bovine serum.

One may read the MIC as the least concentration at which growth counts as inhibited. One may read the pKa as the pH at which an ionisable group is half protonated.

For `COC(=O)C1NC(=O)C2NC(=O)C(NC(=O)C3NC(=O)C4NC(=O)C(Cc5ccc(c(Cl)c5)Oc5cc3cc(c5O)Oc3ccc(cc3Cl)C2O[C@@H]2O[C@H](CO)[C@@H](O)[C@H](O)[C@H]2NC(C)=O)NC(=O)C(N)c2ccc(O)c(c2)Oc2cc(O)cc4c2)c2ccc(O)c(c2)-c2c(O)cc(O)cc21.Cl` (some centres unmarked) [Example 1, antibiotic L 17046 methyl ester, hydrochloride], the minimum inhibitory concentration (MIC) in the data set with S. pneumoniae UC 41 was 0.5 µg/mL; in data set [1], 0.016 µg/mL; with S. faecalis ATCC 7080, 0.5 µg/mL; against S. aureus ATCC 6538 it was 0.125 µg/mL; in data set [2], 0.5 µg/mL; against E. coli SKF 12140 it was 128 µg/mL. The MIC against S. aureus TOUR (S. aureus TOUR (10^3 CFU/ml)) came out at 0.125 µg/mL; with S. aureus TOUR (S. aureus TOUR (10^6 CFU/ml)), 0.5 µg/mL; with S. aureus TOUR (setting [3]) it was 0.25 µg/mL. Moreover, in “pKa by titration”, the pKa turned out to be 6.70.

As for `CCOC(=O)C1NC(=O)C2NC(=O)C(NC(=O)C3NC(=O)C4NC(=O)C(Cc5ccc(c(Cl)c5)Oc5cc3cc(c5O)Oc3ccc(cc3Cl)C2O[C@@H]2O[C@H](CO)[C@@H](O)[C@H](O)[C@H]2NC(C)=O)NC(=O)C(N)c2ccc(O)c(c2)Oc2cc(O)cc4c2)c2ccc(O)c(c2)-c2c(O)cc(O)cc21.Cl` (some centres unmarked) [Example 2, antibiotic L 17046 ethyl ester, hydrochloride], the minimal inhibitory concentration (MIC) with S. pneumoniae UC 41 worked out at 0.5 µg/mL; in data set [1], 0.016 µg/mL; against S. faecalis ATCC 7080, 0.5 µg/mL; with S. aureus ATCC 6538, 0.25 µg/mL; in data set [2], 0.5 µg/mL; against E. coli SKF 12140, 128 µg/mL. Also, the minimal inhibitory concentration (MIC) with S. aureus TOUR (S. aureus TOUR (10^3 CFU/ml)) amounted to 0.25 µg/mL; in the data set with S. aureus TOUR (S. aureus TOUR (10^6 CFU/ml)) it was 0.5 µg/mL; with S. aureus TOUR (setting [3]), 0.5 µg/mL. The molecule also had a pKa in the data set “pKa by titration” of 6.68.

As for `CCCCOC(=O)C1NC(=O)C2NC(=O)C(NC(=O)C3NC(=O)C4NC(=O)C(Cc5ccc(c(Cl)c5)Oc5cc3cc(c5O)Oc3ccc(cc3Cl)C2O[C@@H]2O[C@H](CO)[C@@H](O)[C@H](O)[C@H]2NC(C)=O)NC(=O)C(N)c2ccc(O)c(c2)Oc2cc(O)cc4c2)c2ccc(O)c(c2)-c2c(O)cc(O)cc21.Cl` (some centres unmarked) [Example 3, antibiotic L 17046 n-butyl ester, hydrochloride], the MIC against S. pneumoniae UC 41 came out at 0.5 µg/mL; in data set [1], 0.016 µg/mL; in the data set on S. faecalis ATCC 7080 it was 0.5 µg/mL; against S. aureus ATCC 6538, 0.25 µg/mL; in data set [2] it was 0.25 µg/mL; in the data set on E. coli SKF 12140, 128 µg/mL. Further, the MIC against S. aureus TOUR (S. aureus TOUR (10^3 CFU/ml)) is 0.125 µg/mL; against S. aureus TOUR (S. aureus TOUR (10^6 CFU/ml)) it was 0.25 µg/mL; in the data set on S. aureus TOUR (setting [3]) it was 0.5 µg/mL. The pKa in the data set “pKa by titration” came out at 6.65.

For the molecule `CC(=O)N[C@H]1[C@H](OC2c3ccc(c(Cl)c3)Oc3cc4cc(c3O)Oc3ccc(cc3Cl)CC3NC(=O)C(N)c5ccc(O)c(c5)Oc5cc(O)cc(c5)C(NC3=O)C(=O)NC4C(=O)NC3C(=O)NC2C(=O)NC(C(=O)OCCCl)c2cc(O)cc(O)c2-c2cc3ccc2O)O[C@H](CO)[C@@H](O)[C@@H]1O.Cl` (some centres unmarked) [Example 4, antibiotic L 17046 2-chloroethyl ester, hydrochloride], the MIC with S. pneumoniae UC 41 was 0.5 µg/mL; in data set [1], 0.064 µg/mL; in the data set with S. faecalis ATCC 7080, 0.5 µg/mL; against S. aureus ATCC 6538 it was 0.25 µg/mL; in data set [2] it was 0.25 µg/mL; with E. coli SKF 12140, 128 µg/mL. Also, the MIC against S. aureus TOUR (S. aureus TOUR (10^3 CFU/ml)) was found to be 0.25 µg/mL; in the data set on S. aureus TOUR (S. aureus TOUR (10^6 CFU/ml)), 0.5 µg/mL; in the data set on S. aureus TOUR (setting [3]) it was 0.5 µg/mL. This molecule displayed a pKa in the data set “pKa by titration” of 6.67.

Turning to `CC(=O)N[C@H]1[C@H](OC2c3ccc(c(Cl)c3)Oc3cc4cc(c3O)Oc3ccc(cc3Cl)CC3NC(=O)C(N)c5ccc(O)c(c5)Oc5cc(O)cc(c5)C(NC3=O)C(=O)NC4C(=O)NC3C(=O)NC2C(=O)NC(C(=O)OCCCCCl)c2cc(O)cc(O)c2-c2cc3ccc2O)O[C@H](CO)[C@@H](O)[C@@H]1O.Cl` (some centres unmarked) [Example 5, antibiotic L 17046 4-chlorobutyl ester, hydrochloride], the MIC against S. pneumoniae UC 41 is 0.125 µg/mL; in data set [1] it was 0.064 µg/mL; in the data set with S. faecalis ATCC 7080 it was 0.25 µg/mL; against S. aureus ATCC 6538, 0.25 µg/mL; in data set [2], 0.25 µg/mL; in the data set on E. coli SKF 12140 it was 128 µg/mL. Besides, the MIC came out at 0.125 µg/mL against S. aureus TOUR (S. aureus TOUR (10^3 CFU/ml)), 0.125 µg/mL with S. aureus TOUR (S. aureus TOUR (10^6 CFU/ml)) and 0.5 µg/mL with S. aureus TOUR (setting [3]). The pKa in “pKa by titration” turned out to be 6.66.

Regarding `CC(=O)N[C@H]1[C@H](OC2c3ccc(c(Cl)c3)Oc3cc4cc(c3O)Oc3ccc(cc3Cl)CC3NC(=O)C(N)c5ccc(O)c(c5)Oc5cc(O)cc(c5)C(NC3=O)C(=O)NC4C(=O)NC3C(=O)NC2C(=O)NC(C(=O)OCc2ccccc2)c2cc(O)cc(O)c2-c2cc3ccc2O)O[C@H](CO)[C@@H](O)[C@@H]1O.O=C(O)C(F)(F)F` (some centres unmarked) [Example 8, antibiotic L 17046 benzyl ester trifluoroacetate], the MIC came out at 0.25 µg/mL against S. pneumoniae UC 41; 0.063 µg/mL in data set [1]; 0.125 µg/mL with S. faecalis ATCC 7080; 0.125 µg/mL in data set [2]; 64 µg/mL against E. coli SKF 12140; 0.125 µg/mL against S. aureus TOUR (S. aureus TOUR (10^3 CFU/ml)). For the same molecule, the values for the MIC with S. aureus TOUR (S. aureus TOUR (10^6 CFU/ml)) and in the data set on S. aureus TOUR (setting [3]) were 0.125 µg/mL and 4 µg/mL, respectively.

`CC(=O)N[C@H]1[C@H](OC2c3ccc(c(Cl)c3)Oc3cc4cc(c3O)Oc3ccc(cc3Cl)CC3NC(=O)C(N)c5ccc(O)c(c5)Oc5cc(O)cc(c5)C(NC3=O)C(=O)NC4C(=O)NC3C(=O)NC2C(=O)NC(C(=O)OCc2ccc(C)cc2)c2cc(O)cc(O)c2-c2cc3ccc2O)O[C@H](CO)[C@@H](O)[C@@H]1O` (some centres unmarked) [Example 10, antibiotic L 17046 (4-methyl)-benzyl ester]: the minimal inhibitory concentration (MIC) with S. pneumoniae UC 41 was found to be 0.5 µg/mL (≈ 0.332 µM); in data set [1], 0.063 µg/mL (≈ 0.0418 µM); against S. faecalis ATCC 7080 it was 0.25 µg/mL (≈ 0.166 µM); in data set [2], 0.125 µg/mL (≈ 0.083 µM); with E. coli SKF 12140 it was 64 µg/mL (≈ 42.5 µM); against S. aureus TOUR (S. aureus TOUR (10^3 CFU/ml)), 0.125 µg/mL (≈ 0.083 µM). Besides, the minimum inhibitory concentration (MIC) against S. aureus TOUR (S. aureus TOUR (10^6 CFU/ml)) worked out at 0.25 µg/mL (≈ 0.166 µM); in the data set with S. aureus TOUR (setting [3]) it was 4 µg/mL.

Regarding `CC(=O)N[C@H]1[C@H](OC2c3ccc(c(Cl)c3)Oc3cc4cc(c3O)Oc3ccc(cc3Cl)CC3NC(=O)C(N)c5ccc(O)c(c5)Oc5cc(O)cc(c5)C(NC3=O)C(=O)NC4C(=O)NC3C(=O)NC2C(=O)NC(C(=O)OCCO)c2cc(O)cc(O)c2-c2cc3ccc2O)O[C@H](CO)[C@@H](O)[C@@H]1O.O=C(O)C(F)(F)F` (some centres unmarked) [Example 12, antibiotic L 17046 (2-hydroxy)ethyl ester trifluroacetate], the MIC in the data set on S. pneumoniae UC 41 was determined as 1 µg/mL; in data set [1] it was 0.063 µg/mL; against S. faecalis ATCC 7080, 0.25 µg/mL; in data set [2] it was 0.25 µg/mL; in the data set with E. coli SKF 12140 it was 128 µg/mL; against S. aureus TOUR (S. aureus TOUR (10^3 CFU/ml)), 0.125 µg/mL. Also, the MIC is 0.125 µg/mL in the data set with S. aureus TOUR (S. aureus TOUR (10^6 CFU/ml)) and 0.5 µg/mL with S. aureus TOUR (setting [3]).
